Among the data in patent publication EP3772943B1, “FORMULATION OF INSECTICIDAL MIXTURES WITH PROPYLENE CARBONATE” (Bayer Aktiengesellschaft, priority 2018, dated 2019) are Kutikelpenetration values, retold here.

This series concerns enzymatisch isolierte Kutikeln von Apfelbaumblättern. The experiment in a line: Cuticle penetration test in diffusion cells with HPLC read-out (Beispiel V). Format: in vitro ADME, Apfelbäumen. The note with it: active substances without additives and in presence of propylene carbonate (Tabelle V, Eintrag 1,2). From the text:
In diesem Test wird die Penetration von Wirkstoffen durch enzymatisch isolierte Kutikeln von Apfelbaumblättern gemessen.
Verwendet werden Blätter, die in voll entwickeltem Zustand von Apfelbäumen abgeschnitten werden und nach der Methode beschrieben bei Schönherr und Riederer isoliert (Schönherr, J., Riederer, M. (1986)). Es werden nur die von Spaltöffnungen und Haaren freien Kutikeln der Blattoberseiten weiter verwendet. Die so gewonnenen Kutikularmembranen werden für Membran-Transport-Untersuchungen in Diffusionszellen (=Transportkammern) aus Edelstahl eingelegt. Dazu werden die Kutikeln mit einer Pinzette mittig auf die mit Silikonfett bestrichenen Ränder der Diffusionszellen plaziert und mit einem ebenfalls gefetteten Ring verschlossen. Die Anordnung ist so gewählt, dass die morphologische Außenseite der Kutikeln nach außen, also zur Luft, gerichtet ist, während die ursprüngliche Innenseite dem Inneren der Diffusionszelle zugewandt ist. Die Diffusionszellen sind mit Wasser bzw. mit einem Gemisch aus Wasser und Lösungsmittel gefüllt und auf des physiologisch relevante pH von 5.5 gepuffert. Das Medium der Diffusionszellen soll das Apoplast, also das natürliche Aufnahmemdium im inneren des Blattes nachstellen. […]

For `O=C1C=C(N(Cc2ccc(Cl)nc2)CC(F)F)CO1` [Flupyradifurone], the Kutikelpenetration result is recorded as “keine oder kaum Kutikelpenetration”.
